Consider 5 compounds from ChEMBL document CHEMBL5620412, “Discovery of benzofuran-2-carboxylic acid derivatives as lymphoid tyrosine phosphatase (LYP) inhibitors for cancer immunotherapy” (Eur J Med Chem, 2023).

Bounds are passed on as bounds.

Assay [1] in a line: Selectivity ratio of IC50 for inhibition of N-terminal His-tagged SSH2 catalytic domain (1 to 294 residues) (unknown origin) expressed in Escherichia coli BL21 (DE3) cells to IC50 for inhibition of N-terminal His-tagged LYP catalytic domain (1 to 294 residues) (unknown origin) expressed in Escherichia coli BL21 (DE3) cells using pNPP as substrate.
Assay [2] addresses T1, Tyrosine-protein phosphatase non-receptor type 1 (Homo sapiens, UniProt P18031).
T1 sequence (P18031 whole entry): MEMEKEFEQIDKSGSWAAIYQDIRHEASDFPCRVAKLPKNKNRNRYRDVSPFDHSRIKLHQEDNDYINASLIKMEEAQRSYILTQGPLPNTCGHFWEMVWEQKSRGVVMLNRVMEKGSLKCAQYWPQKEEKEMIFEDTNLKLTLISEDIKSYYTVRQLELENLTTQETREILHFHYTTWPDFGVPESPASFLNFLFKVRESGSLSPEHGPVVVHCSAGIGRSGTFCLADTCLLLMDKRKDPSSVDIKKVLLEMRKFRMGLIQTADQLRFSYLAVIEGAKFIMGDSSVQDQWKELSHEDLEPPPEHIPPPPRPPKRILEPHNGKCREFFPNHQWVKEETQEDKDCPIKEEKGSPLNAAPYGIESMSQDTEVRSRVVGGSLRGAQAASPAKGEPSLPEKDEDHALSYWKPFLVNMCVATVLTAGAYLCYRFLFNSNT
In words: Inhibition of N-terminal His-tagged PTP1B catalytic domain (1 to 294 residues) (unknown origin) expressed in Escherichia coli BL21 (DE3) cells.

Assay [3] has as its target T2, Tyrosine-protein phosphatase non-receptor type 5 (Homo sapiens, UniProt P54829).
T2 sequence (P54829 whole entry): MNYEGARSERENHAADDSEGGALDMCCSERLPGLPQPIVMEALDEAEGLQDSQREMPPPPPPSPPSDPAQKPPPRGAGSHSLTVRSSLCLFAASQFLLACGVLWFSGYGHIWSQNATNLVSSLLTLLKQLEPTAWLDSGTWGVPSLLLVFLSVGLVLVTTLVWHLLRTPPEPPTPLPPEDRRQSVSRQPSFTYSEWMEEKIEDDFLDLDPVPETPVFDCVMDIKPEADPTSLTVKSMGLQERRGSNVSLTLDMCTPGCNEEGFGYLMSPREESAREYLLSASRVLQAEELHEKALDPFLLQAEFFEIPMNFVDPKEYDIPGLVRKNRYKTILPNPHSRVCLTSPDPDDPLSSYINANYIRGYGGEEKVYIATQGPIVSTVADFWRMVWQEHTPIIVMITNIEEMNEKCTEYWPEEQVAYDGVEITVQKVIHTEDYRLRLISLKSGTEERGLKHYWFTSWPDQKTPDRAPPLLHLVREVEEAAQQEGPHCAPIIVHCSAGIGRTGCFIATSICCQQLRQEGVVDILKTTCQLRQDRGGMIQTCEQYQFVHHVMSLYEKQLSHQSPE
In words: Inhibition of N-terminal His-tagged PTPN5 catalytic domain (1 to 294 residues) (unknown origin) expressed in Escherichia coli BL21 (DE3) cells.

For assay [4], the target named is T3, Tyrosine-protein phosphatase non-receptor type 22 (Homo sapiens, UniProt Q9Y2R2).
T3 sequence (Q9Y2R2 whole entry): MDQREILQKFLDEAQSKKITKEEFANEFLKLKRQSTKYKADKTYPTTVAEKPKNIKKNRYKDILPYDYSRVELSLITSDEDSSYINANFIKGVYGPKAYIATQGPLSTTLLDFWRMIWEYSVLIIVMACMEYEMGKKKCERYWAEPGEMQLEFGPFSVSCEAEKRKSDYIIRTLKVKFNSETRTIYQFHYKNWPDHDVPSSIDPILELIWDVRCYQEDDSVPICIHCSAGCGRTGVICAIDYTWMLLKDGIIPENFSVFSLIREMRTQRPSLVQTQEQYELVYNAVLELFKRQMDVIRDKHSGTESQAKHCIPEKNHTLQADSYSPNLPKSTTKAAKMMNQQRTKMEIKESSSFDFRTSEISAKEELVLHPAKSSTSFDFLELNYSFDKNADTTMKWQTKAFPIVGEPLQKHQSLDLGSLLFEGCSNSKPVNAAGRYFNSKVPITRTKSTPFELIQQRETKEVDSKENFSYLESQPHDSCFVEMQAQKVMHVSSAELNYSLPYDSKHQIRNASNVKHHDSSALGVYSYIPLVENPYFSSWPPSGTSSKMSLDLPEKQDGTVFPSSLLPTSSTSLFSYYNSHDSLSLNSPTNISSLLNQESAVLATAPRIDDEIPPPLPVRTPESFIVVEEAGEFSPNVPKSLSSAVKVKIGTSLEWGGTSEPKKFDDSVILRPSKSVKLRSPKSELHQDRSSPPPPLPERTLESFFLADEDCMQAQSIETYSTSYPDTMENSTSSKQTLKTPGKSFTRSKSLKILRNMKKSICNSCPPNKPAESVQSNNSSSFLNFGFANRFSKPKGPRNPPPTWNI
In words: Inhibition of N-terminal His-tagged LYP catalytic domain (1 to 294 residues) (unknown origin) expressed in Escherichia coli BL21 (DE3) cells using pNPP as substrate by absorbance based plate reader analysis.

Assay [5] deals with T4, Tyrosine-protein phosphatase non-receptor type 12 (Homo sapiens, UniProt Q05209).
T4 sequence (Q05209 whole entry): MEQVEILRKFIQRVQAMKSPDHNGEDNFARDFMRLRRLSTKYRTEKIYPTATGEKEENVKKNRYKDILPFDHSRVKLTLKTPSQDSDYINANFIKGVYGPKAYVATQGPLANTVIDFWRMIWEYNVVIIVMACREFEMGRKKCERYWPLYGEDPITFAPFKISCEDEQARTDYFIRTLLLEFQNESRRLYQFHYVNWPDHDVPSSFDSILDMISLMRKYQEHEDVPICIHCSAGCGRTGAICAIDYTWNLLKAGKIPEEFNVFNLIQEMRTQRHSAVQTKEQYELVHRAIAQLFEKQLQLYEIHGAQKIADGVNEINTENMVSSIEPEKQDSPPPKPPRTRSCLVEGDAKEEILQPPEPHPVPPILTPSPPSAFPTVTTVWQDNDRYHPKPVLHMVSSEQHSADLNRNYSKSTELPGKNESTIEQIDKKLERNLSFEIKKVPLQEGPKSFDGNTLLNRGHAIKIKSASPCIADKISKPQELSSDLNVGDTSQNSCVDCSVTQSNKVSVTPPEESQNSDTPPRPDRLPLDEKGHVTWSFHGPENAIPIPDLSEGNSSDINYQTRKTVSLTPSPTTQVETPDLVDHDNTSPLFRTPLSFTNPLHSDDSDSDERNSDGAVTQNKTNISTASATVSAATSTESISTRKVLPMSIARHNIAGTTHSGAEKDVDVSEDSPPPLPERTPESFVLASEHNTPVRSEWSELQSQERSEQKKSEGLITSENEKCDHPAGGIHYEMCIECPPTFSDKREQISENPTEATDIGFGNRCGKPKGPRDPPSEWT
In words: Inhibition of N-terminal His-tagged PTPN12 catalytic domain (1 to 294 residues) (unknown origin) expressed in Escherichia coli BL21 (DE3) cells.

Regarding `O=C(O)c1cc2cc(N(Cc3ccc(-c4ccccc4)cc3)S(=O)(=O)c3ccc(-c4cccc(O)c4)cc3)ccc2o1`, the Ratio IC50 in assay [1] is more than 5.5. For the same compound, the IC50 is 6.4 µM in assay [2], more than 20 µM in assay [3], 3.59 µM in assay [4] and 10.6 µM in assay [5].
Take `CC(=O)C1=C(C)N=c2s/c(=C/c3ccc(OCc4ccc(C(=O)O)cc4)cc3)c(=O)n2C1c1ccc(N(C)C)cc1` (configuration not stated): the IC50 in assay [2] was 7.1 µM; in assay [3], more than 20 µM; in assay [4], 6.1 µM; in assay [5] it was 8.2 µM.
For the compound `COc1ccc(-c2ccc(CN(c3ccc4oc(C(=O)O)cc4c3)S(=O)(=O)c3ccc(Cl)c([N+](=O)[O-])c3)cc2)cc1`, the IC50 was 13.7 µM in assay [2], more than 20 µM in assay [3] and 12.3 µM in assay [5].
Turning to `O=C(O)c1cc2cc(N(Cc3ccc(OCc4ccccc4)cc3)S(=O)(=O)c3ccc(-c4ccccc4)cc3)ccc2o1`, the Ratio IC50 in assay [1] was more than 5.5. Further, the IC50 in assay [2] was 10.7 µM; in assay [3], more than 20 µM; in assay [4], 2.55 µM; in assay [5], 11.7 µM.
As for `O=C(O)c1cc2cc(N(Cc3cccc(-c4ccccc4)c3)S(=O)(=O)c3ccc(-c4ccccc4)cc3)ccc2o1`, the Ratio IC50 in assay [1] was more than 5.5. Further, the IC50 in assay [2] was 5.9 µM; in assay [3] it was more than 20 µM; in assay [4] it was 3.23 µM; in assay [5], 6.4 µM.

The IC50 is the concentration that inhibits the measured activity by half. The low end stands for greater potency in that assay, the high end for weaker potency in that assay.
